{"source": "paper PMC6120666", "about": "(The EMBO Journal, 2018)", "assay_in_all_cases": "Drug affinity chromatography with c-ponatinib and LC-MS/MS (ponatinib interactome)", "type_in_all_cases": "binding", "key": {"[1]": {"molecular_target": "T1, proteins of U2OS cell lysate (Homo sapiens, UniProt O14980)", "T1 construct": "Proteins enriched by c-ponatinib from U2OS cell lysate; endogenous in cells; host or cells: U2OS cell lysate", "details": "XPO1, Exportin-1", "procedure,_shortened": "(§1)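 Proteins were identified by nano-UPLC–MS/MS after elution with formic acid and trypsin digestion. They were captured from U2OS lysate (2 mg protein per pulldown, NP-40 buffer) on amine-coupled NHS beads during a 2 h incubation at 4 °C.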"}, "[2]": {"molecular_target": "T2, proteins of U2OS cell lysate (Homo sapiens, UniProt O43318)", "T2 construct": "Proteins enriched by c-ponatinib from U2OS cell lysate; endogenous in cells; host or cells: U2OS cell lysate", "details": "MAP3K7;DKFZp586F0420, Mitogen-activated protein kinase kinase kinase 7", "procedure,_shortened": "as §1"}, "[3]": {"molecular_target": "T3, proteins of U2OS cell lysate (Homo sapiens, UniProt O94921)", "T3 construct": "Proteins enriched by c-ponatinib from U2OS cell lysate; endogenous in cells; host or cells: U2OS cell lysate", "T3 sequence (O94921 whole entry)": "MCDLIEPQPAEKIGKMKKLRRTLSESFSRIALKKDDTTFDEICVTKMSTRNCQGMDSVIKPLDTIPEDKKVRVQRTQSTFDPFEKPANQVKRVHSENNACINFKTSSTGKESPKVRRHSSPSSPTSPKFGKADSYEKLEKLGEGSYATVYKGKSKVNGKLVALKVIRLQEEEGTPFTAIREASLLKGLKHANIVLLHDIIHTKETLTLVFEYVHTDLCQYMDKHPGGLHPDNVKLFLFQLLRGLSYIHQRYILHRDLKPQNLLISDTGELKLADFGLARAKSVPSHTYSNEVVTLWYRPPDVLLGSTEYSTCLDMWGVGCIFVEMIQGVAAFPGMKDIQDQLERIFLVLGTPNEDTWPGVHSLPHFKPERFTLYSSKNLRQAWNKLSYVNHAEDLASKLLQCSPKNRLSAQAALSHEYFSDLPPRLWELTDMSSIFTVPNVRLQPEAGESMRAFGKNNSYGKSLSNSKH", "details": "CDK14, Cyclin-dependent kinase 14", "procedure,_shortened": "as §1"}, "[4]": {"molecular_target": "T4, proteins of U2OS cell lysate (Homo sapiens, UniProt P11021)", "T4 construct": "Proteins enriched by c-ponatinib from U2OS cell lysate; endogenous in cells; host or cells: U2OS cell lysate", "T4 sequence (P11021 19-654)": "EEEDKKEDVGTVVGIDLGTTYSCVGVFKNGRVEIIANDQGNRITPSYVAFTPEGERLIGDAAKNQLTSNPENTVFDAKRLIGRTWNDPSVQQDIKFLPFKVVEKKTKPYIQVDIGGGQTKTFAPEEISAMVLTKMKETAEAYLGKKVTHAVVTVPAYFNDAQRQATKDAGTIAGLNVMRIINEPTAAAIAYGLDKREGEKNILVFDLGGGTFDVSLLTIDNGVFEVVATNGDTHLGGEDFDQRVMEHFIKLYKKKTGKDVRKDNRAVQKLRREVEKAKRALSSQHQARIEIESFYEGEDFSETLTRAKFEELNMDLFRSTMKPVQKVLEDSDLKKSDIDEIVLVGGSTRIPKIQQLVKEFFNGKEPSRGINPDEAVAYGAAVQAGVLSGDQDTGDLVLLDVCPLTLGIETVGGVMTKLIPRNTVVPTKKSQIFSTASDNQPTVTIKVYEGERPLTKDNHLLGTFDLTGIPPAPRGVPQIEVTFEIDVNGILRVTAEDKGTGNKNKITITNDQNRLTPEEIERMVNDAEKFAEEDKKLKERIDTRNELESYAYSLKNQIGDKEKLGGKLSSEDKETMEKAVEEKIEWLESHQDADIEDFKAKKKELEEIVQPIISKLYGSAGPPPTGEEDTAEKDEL", "details": "HSPA5, 78 kDa glucose-regulated protein", "procedure,_shortened": "as §1"}, "[5]": {"molecular_target": "T5, proteins of U2OS cell lysate (Homo sapiens, UniProt P12931)", "T5 construct": "Proteins enriched by c-ponatinib from U2OS cell lysate; endogenous in cells; host or cells: U2OS cell lysate", "T5 sequence (P12931 whole entry)": "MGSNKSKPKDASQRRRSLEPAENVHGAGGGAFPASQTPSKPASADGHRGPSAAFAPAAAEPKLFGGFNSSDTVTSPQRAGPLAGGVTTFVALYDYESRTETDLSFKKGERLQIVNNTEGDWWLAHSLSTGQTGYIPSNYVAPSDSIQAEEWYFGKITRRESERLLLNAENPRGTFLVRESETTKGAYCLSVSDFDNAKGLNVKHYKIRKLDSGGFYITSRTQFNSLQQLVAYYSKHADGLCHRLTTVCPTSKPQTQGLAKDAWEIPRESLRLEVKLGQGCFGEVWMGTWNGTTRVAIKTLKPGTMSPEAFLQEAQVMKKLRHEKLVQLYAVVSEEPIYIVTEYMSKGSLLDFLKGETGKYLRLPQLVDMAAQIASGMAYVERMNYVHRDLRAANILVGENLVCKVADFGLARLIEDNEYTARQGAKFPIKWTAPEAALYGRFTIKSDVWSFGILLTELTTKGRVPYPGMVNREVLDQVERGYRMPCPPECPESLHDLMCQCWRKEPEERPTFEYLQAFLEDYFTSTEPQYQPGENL", "details": "SRC, Proto-oncogene tyrosine-protein kinase Src", "procedure,_shortened": "as §1"}, "[6]": {"molecular_target": "T6, proteins of U2OS cell lysate (Homo sapiens, UniProt P14314)", "T6 construct": "Proteins enriched by c-ponatinib from U2OS cell lysate; endogenous in cells; host or cells: U2OS cell lysate", "details": "PRKCSH, Glucosidase 2 subunit beta", "procedure,_shortened": "as §1"}, "[7]": {"molecular_target": "T7, proteins of U2OS cell lysate (Homo sapiens, UniProt P15880)", "T7 construct": "Proteins enriched by c-ponatinib from U2OS cell lysate; endogenous in cells; host or cells: U2OS cell lysate", "details": "RPS2, 40S ribosomal protein S2", "procedure,_shortened": "as §1"}, "[8]": {"molecular_target": "T8, proteins of U2OS cell lysate (Homo sapiens, UniProt P23284)", "T8 construct": "Proteins enriched by c-ponatinib from U2OS cell lysate; endogenous in cells; host or cells: U2OS cell lysate", "details": "PPIB, Peptidyl-prolyl cis-trans isomerase B", "procedure,_shortened": "as §1"}, "[9]": {"molecular_target": "T9, proteins of U2OS cell lysate (Homo sapiens, UniProt P26368)", "T9 construct": "Proteins enriched by c-ponatinib from U2OS cell lysate; endogenous in cells; host or cells: U2OS cell lysate", "details": "U2AF2, Splicing factor U2AF 65 kDa subunit", "procedure,_shortened": "as §1"}, "[10]": {"molecular_target": "T10, proteins of U2OS cell lysate (Homo sapiens, UniProt P61964)", "T10 construct": "Proteins enriched by c-ponatinib from U2OS cell lysate; endogenous in cells; host or cells: U2OS cell lysate", "details": "WDR5, WD repeat-containing protein 5", "procedure,_shortened": "as §1"}, "[11]": {"molecular_target": "T11, proteins of U2OS cell lysate (Homo sapiens, UniProt P62269)", "T11 construct": "Proteins enriched by c-ponatinib from U2OS cell lysate; endogenous in cells; host or cells: U2OS cell lysate", "details": "RPS18, 40S ribosomal protein S18", "procedure,_shortened": "as §1"}, "[12]": {"molecular_target": "T12, proteins of U2OS cell lysate (Homo sapiens, UniProt Q00325)", "T12 construct": "Proteins enriched by c-ponatinib from U2OS cell lysate; endogenous in cells; host or cells: U2OS cell lysate", "T12 sequence (Q00325 50-362)": "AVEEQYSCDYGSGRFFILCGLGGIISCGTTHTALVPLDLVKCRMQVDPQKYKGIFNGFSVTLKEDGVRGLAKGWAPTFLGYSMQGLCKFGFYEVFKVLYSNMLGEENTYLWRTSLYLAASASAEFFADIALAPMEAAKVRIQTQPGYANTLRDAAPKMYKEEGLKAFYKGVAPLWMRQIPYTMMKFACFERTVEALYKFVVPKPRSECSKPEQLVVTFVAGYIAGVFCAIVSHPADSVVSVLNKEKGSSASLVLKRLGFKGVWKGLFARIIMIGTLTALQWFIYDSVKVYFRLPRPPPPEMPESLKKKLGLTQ", "details": "SLC25A3, Phosphate carrier protein, mitochondrial", "procedure,_shortened": "as §1"}, "[13]": {"molecular_target": "T13, proteins of U2OS cell lysate (Homo sapiens, UniProt Q7L014)", "T13 construct": "Proteins enriched by c-ponatinib from U2OS cell lysate; endogenous in cells; host or cells: U2OS cell lysate", "T13 sequence (Q7L014 whole entry)": "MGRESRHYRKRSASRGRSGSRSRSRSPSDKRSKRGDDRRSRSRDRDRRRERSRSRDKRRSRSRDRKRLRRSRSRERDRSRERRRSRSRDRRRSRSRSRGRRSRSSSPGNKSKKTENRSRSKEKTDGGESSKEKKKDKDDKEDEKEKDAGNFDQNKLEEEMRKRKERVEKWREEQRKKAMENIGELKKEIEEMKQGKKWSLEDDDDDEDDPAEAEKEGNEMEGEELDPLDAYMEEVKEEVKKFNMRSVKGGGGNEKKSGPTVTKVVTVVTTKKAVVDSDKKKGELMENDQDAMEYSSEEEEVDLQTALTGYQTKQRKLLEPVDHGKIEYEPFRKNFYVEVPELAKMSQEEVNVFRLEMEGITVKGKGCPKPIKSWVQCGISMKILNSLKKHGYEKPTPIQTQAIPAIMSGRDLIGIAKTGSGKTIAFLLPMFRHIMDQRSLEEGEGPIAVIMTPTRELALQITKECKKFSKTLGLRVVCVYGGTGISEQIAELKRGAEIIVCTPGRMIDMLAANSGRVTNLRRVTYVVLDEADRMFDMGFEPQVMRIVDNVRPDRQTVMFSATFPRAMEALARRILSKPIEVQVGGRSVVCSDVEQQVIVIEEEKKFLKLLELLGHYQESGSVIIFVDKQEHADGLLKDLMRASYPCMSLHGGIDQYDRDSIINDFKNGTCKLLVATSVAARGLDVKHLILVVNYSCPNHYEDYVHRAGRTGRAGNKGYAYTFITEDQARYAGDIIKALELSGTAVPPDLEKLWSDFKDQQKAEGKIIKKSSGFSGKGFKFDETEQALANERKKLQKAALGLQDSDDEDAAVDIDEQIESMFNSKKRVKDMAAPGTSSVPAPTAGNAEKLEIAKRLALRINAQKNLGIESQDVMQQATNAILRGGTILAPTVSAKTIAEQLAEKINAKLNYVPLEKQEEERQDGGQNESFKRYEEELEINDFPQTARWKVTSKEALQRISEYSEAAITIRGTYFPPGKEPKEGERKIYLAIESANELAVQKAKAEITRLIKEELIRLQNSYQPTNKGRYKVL", "details": "DDX46, Probable ATP-dependent RNA helicase DDX46", "procedure,_shortened": "as §1"}, "[14]": {"molecular_target": "T14, proteins of U2OS cell lysate (Homo sapiens, UniProt Q99623)", "T14 construct": "Proteins enriched by c-ponatinib from U2OS cell lysate; endogenous in cells; host or cells: U2OS cell lysate", "details": "PHB2, Prohibitin-2", "procedure,_shortened": "as §1"}, "[15]": {"molecular_target": "T15, proteins of U2OS cell lysate (Homo sapiens, UniProt Q9NYJ8)", "T15 construct": "Proteins enriched by c-ponatinib from U2OS cell lysate; endogenous in cells; host or cells: U2OS cell lysate", "details": "TAB2, TGF-beta-activated kinase 1 and MAP3K7-binding protein 2", "procedure,_shortened": "as §1"}, "[16]": {"molecular_target": "T16, proteins of U2OS cell lysate (Homo sapiens, UniProt Q9UIA9)", "T16 construct": "Proteins enriched by c-ponatinib from U2OS cell lysate; endogenous in cells; host or cells: U2OS cell lysate", "T16 sequence (Q9UIA9 whole entry)": "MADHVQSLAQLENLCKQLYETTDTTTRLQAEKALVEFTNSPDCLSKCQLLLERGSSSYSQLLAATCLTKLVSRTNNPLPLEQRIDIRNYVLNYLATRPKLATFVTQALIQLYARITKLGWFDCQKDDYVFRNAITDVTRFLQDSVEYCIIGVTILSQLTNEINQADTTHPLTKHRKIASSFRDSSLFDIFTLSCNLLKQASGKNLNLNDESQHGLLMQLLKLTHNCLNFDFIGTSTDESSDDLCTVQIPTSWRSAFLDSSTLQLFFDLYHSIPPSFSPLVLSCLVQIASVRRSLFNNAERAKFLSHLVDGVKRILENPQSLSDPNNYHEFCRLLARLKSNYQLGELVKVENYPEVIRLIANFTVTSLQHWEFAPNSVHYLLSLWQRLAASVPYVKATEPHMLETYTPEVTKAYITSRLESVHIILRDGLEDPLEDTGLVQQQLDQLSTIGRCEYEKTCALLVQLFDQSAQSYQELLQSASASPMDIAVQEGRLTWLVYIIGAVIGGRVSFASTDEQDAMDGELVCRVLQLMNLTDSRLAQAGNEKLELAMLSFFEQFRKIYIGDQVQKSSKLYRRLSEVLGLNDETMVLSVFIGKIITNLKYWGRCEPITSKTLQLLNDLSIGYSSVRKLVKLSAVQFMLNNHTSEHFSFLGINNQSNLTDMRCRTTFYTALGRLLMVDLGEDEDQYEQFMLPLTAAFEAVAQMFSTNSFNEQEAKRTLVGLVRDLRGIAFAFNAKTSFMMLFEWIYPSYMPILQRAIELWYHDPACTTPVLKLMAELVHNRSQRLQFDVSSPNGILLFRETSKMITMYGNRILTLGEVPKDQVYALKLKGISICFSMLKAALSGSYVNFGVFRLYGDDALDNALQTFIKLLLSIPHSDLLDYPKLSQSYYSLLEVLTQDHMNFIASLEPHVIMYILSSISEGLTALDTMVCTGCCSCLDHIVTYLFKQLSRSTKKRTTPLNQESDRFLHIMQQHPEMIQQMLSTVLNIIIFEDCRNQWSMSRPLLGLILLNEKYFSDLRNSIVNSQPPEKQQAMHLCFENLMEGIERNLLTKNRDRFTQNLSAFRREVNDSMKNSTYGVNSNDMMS", "details": "XPO7, Exportin-7", "procedure,_shortened": "as §1"}, "[17]": {"molecular_target": "T17, proteins of U2OS cell lysate (Homo sapiens, UniProt Q9Y6G9)", "T17 construct": "Proteins enriched by c-ponatinib from U2OS cell lysate; endogenous in cells; host or cells: U2OS cell lysate", "T17 sequence (Q9Y6G9 whole entry)": "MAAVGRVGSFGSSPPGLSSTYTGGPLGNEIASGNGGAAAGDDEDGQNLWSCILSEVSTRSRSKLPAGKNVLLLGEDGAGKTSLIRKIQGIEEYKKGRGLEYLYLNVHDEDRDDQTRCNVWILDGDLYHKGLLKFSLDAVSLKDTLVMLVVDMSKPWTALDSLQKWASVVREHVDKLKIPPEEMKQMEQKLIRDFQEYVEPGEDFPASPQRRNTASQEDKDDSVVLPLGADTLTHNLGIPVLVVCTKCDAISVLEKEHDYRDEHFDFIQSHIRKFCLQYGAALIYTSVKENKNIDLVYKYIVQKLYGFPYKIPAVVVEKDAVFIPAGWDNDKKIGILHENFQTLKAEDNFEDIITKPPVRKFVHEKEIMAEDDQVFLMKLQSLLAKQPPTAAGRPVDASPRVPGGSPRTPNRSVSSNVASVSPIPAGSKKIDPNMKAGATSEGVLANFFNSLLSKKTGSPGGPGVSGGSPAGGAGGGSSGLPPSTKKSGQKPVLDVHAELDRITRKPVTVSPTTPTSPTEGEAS", "details": "DYNC1LI1, Cytoplasmic dynein 1 light intermediate chain 1", "procedure,_shortened": "as §1"}, "[18]": {"molecular_target": "T18, proteins of U2OS cell lysate (Homo sapiens, UniProt P20674)", "T18 construct": "Proteins enriched by c-ponatinib from U2OS cell lysate; endogenous in cells; host or cells: U2OS cell lysate", "T18 sequence (P20674 42-150)": "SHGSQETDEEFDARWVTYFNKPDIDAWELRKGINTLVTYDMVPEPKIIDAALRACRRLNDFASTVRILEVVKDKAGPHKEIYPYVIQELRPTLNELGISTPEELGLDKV", "details": "captured protein COX5A, Rank 122", "procedure,_shortened": "as §1"}, "[19]": {"molecular_target": "T19, proteins of U2OS cell lysate (Homo sapiens, UniProt P25787)", "T19 construct": "Proteins enriched by c-ponatinib from U2OS cell lysate; endogenous in cells; host or cells: U2OS cell lysate", "T19 sequence (P25787 whole entry)": "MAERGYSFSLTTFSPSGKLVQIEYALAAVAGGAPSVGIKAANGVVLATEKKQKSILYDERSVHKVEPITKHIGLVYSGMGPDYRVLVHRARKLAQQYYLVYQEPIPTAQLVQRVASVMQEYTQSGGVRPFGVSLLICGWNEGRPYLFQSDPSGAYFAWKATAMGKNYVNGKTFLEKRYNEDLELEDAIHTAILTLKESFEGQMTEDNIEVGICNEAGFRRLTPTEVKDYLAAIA", "details": "captured protein PSMA2, Rank 214", "procedure,_shortened": "as §1"}}, "data": [{"smiles": "Cc1ccc(C(=O)Nc2ccc(CN3CCN(C)CC3)c(C(F)(F)F)c2)cc1C#Cc1cnc2cccnn12", "note": "[PON]", "values": [{"measurement": "Average LFQ PON_WT", "setting": "[1]", "result": 23.5357}, {"measurement": "Average LFQ PON_WT", "setting": "[2]", "result": 25.3656}, {"measurement": "Average LFQ PON_WT", "setting": "[3]", "result": 25.6287}, {"measurement": "Average LFQ PON_WT", "setting": "[4]", "result": 23.5505}, {"measurement": "Average LFQ PON_WT", "setting": "[5]", "result": 24.0256}, {"measurement": "Average LFQ PON_WT", "setting": "[6]", "result": 21.2991}, {"measurement": "Average LFQ PON_WT", "setting": "[7]", "result": 20.865}, {"measurement": "Average LFQ PON_WT", "setting": "[8]", "result": 20.4971}, {"measurement": "Average LFQ PON_WT", "setting": "[9]", "result": 21.5048}, {"measurement": "Average LFQ PON_WT", "setting": "[10]", "result": 20.2851}, {"measurement": "Average LFQ PON_WT", "setting": "[11]", "result": 21.0717}, {"measurement": "Average LFQ PON_WT", "setting": "[12]", "result": 23.3948}, {"measurement": "Average LFQ PON_WT", "setting": "[13]", "result": 21.404}, {"measurement": "Average LFQ PON_WT", "setting": "[14]", "result": 28.7804}, {"measurement": "Average LFQ PON_WT", "setting": "[15]", "result": 24.3605}, {"measurement": "Average LFQ PON_WT", "setting": "[16]", "result": 20.002}, {"measurement": "Average LFQ PON_WT", "setting": "[17]", "result": 23.2986}]}, {"smiles": "Cc1ccc(C(=O)Nc2ccc(CN3CCN(CCCN)CC3)c(C(F)(F)F)c2)cc1C#Cc1cnc2cccnn12", "note": "[c-ponatinib, reference compound]", "values": [{"measurement": "Average LFQ intensity", "setting": "[18]", "result": 23.049}, {"measurement": "Average LFQ intensity", "setting": "[19]", "result": 21.6987}]}]}
